# Test results as given in ChEMBL document CHEMBL1148451, “Receptor flexibility in the in silico screening of reagents in the S1' pocket of human collagenase” (J Med Chem, 2004).
# Molecular target: T1, Interstitial collagenase (Homo sapiens, UniProt P03956)
# T1 sequence (P03956 whole entry): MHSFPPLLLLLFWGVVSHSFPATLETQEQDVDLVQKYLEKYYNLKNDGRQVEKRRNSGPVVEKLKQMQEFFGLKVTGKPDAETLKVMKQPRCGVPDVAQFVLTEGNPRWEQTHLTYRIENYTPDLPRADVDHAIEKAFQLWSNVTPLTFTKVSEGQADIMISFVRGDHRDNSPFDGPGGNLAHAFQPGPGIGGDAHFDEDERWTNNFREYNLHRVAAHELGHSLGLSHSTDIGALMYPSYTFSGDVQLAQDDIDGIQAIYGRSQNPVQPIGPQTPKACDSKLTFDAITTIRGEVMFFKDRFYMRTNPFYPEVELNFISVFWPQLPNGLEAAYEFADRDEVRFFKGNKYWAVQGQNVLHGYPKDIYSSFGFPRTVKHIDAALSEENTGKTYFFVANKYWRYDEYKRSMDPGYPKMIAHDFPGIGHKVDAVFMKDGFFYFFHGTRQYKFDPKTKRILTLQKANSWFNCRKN
# Test: Inhibition of human matrix metalloprotease-1
Ki [nM],IC50 [nM],SMILES
224,,O=C(NO)C1CCCCN1S(=O)(=O)N1CCC(Oc2ccc(-n3ccnc3)cc2)CC1 (stereo not given)
,920,CCCCOc1ccc(S(=O)(=O)N2CC(N3CCOCC3)CC2C(=O)NO)cc1 (stereo not given)
3,,O=C(CN(Cc1ccc([N+](=O)[O-])cc1)S(=O)(=O)c1ccc(C(F)(F)F)cc1)NO
,121,CC#CCOc1ccc(S(=O)(=O)N2CCc3ccccc3C2C(=O)NO)cc1 (stereo not given)

# The remaining lines, values behind:
SMILES,Ki [nM],IC50 [nM]
CNC(=O)C(NC(=O)C(CC(C)C)C(NS(=O)(=O)c1cccc2cccc(=O)n12)C(=O)NO)C(C)(C)C (stereo not given),,1.3
O=C(NO)C1CCCCN1S(=O)(=O)N1CCN(c2ccccn2)CC1 (stereo not given),423,
CC(C)C(NS(=O)(=O)N1CCC(Oc2ccc(Cl)cn2)CC1)C(=O)NO (stereo not given),,360
CCOC(=O)[C@H](C)NC(=O)[C@H](CC(C)C)NC(=O)[C@@H](CC(=O)NO)CC(C)C,,40
O=C(CC1(S(=O)(=O)c2ccc(Oc3ccc(Cl)cc3)cc2)CCOCC1)NO,70,
Cc1ccc(COc2ccc(S(=O)(=O)N3CCCC(C)(O)C3C(=O)NO)cc2)c(C)c1 (stereo not given),,10
